Source: patent publication US20140056951A1, “METHODS AND COMPOSITIONS FOR TREATING BIOFILMS” (PRESIDENT AND FELLOWS OF HARVARD COLLEGE, priority 2011, published 2014)

Key:
[1] = test system: B. subtilis strain NCBI3610; assay: Biofilm (pellicle) inhibition assay, B. subtilis in liquid biofilm-inducing medium; format: cell-based, Bacillus subtilis; conditions: for minimal effective concentration: Bacillus subtilis, NCBI3610, read-out: MBIC- Minimal Biofilm Inhibitory Concentration; for biofilm-inhibitory activity against B. subtilis: structure-activity; for concentration above which inhibition of biofilm formation is observed: B. subtilis pellicle formation; for inhibition of pellicle formation at 50 μM: cells diluted 1:1000 in biofilm media, final concentration 50 μM
Experimental: Bacillus subtilis strains PY79, 3610 and their derivatives were grown in Luria-Bertani (LB) medium at 37° C. or MSgg medium (1) at 23° C. Solid media contained 1.5% Bacto agar. When appropriate, antibiotics were added at the following concentrations for growth of B. subtilis: 10 μg per ml of tetracycline, and 5 μg per ml of erythromycin, 500 μg per ml of spectinomycin.
B. subtilis strain NCBI3610 was grown at 22° C. in 12-well plates in liquid biofilm-inducing medium for 3 or 8 days. Conditioned medium (500 ml) from an 8-day-old culture was concentrated on the C-18 column and eluted step-wise with methanol. […]
Pellicle formation of strain NCBI 3610 was tested in the presence of the indicated concentrations of norspermidine (FIG. 1D) or spermidine (FIG. 1E).
To identify features of norspermidine important for its biofilm disassembly activity, we tested a library of polyamines in our biofilm inhibition assay (FIGS. 9A, 9B, 10 and Table 2).
The effect of polyamines on pellicle formation by B. subtilis was examined. B. subtilis wild-type cells were grown to a mid-logarithmic phase and diluted 1:1000 in biofilm media applied with each polyamine to the final concentration of 50 μM.
The effect of cyclic polyamines on biofilm formation by B. subtilis was examined. B. subtilis wild-type cells were grown to a mid-logarithmic phase and diluted 1:1000 in biofilm media (18A) or in a medium applied with cyclic compound 1,5,9-Triazacyclododecane to the final concentration of 50 μM (18B).

[2] = test system: exopolysaccharide of E. coli cells; assay: Fluorescence microscopy of exopolysaccharide staining, E. coli; format: cell-based, Escherichia coli
Text: In testing E. coli, the biofilm-proficient strain MC4100 was selected because a major component of exopolysacchride is colanic acid (Danese et al., 2000; Price and Raivio, 2009).

[3] = test system: exopolysaccharide and TasA of B. subtilis NCBI 3610; assay: Fluorescence microscopy of matrix components (concanavalin A-Texas Red, TasA-mCherry), B. subtilis; format: cell-based, Bacillus subtilis; conditions: norspermidine 25 μM, spermidine 1 mM
Text: The cells were washed in PBS and stained for exopolysaccharide with a conjugate of concanavalin A with Texas-Red.
[…] Cells were washed in PBS, and visualized by fluorescence microscopy.
To investigate further, exopolysaccharide was visualized by fluorescence microscopy using a conjugate of the carbohydrate-binding protein concanavalin A with Texas Red (FIG. 5) (McSwain et al., 2005). As evidence of specificity, the conjugate decorated wild-type cells but not cells from a mutant (Aeps) blocked in exopolysaccharide production (FIG. 6A). Indeed, at an exposure at which concanavalin A staining with the wild type strain gave an extremely bright fluorescent signal, little or no signal could be detected for the Aeps mutant, except at long exposures and enhanced brightness (FIG. 6A). Next, we investigated the effects of norspermidine and spermidine. […] Therefore, the difference in the staining was evidently due to differential levels of cell-associated exopolysaccharide. […] Thus, while not being bound to any theory, it is believed that norspermidine disrupts the matrix and by targeting exopolysaccharide.

[4] = test system: exopolysaccharide of S. aureus cells; assay: Fluorescence microscopy of exopolysaccharide staining, S. aureus; format: cell-based, Staphylococcus aureus
[5] = test system: B. subtilis wild-type cells; assay: Biofilm formation on solid biofilm medium, B. subtilis; format: cell-based, Bacillus subtilis; conditions: 1 μl of cells mixed with 1 μl (1 mM) polyamine
Experimental: B. subtilis wild-type cells were grown to a mid-logarithmic phase and 1 μl of cells was mixed with 1 μl (1 mM) of each polyamine. The mixture was plated on solid biofilm medium.
B. subtilis wild-type cells were grown to a mid-logarithmic phase and 1 μl of cells was either mixed with PBS (18C) or mixed with 1 μl (1 mM) of each polyamine (18D). The mixture was plated on solid biofilm medium. “3*” refers to 1,5,9-Triazacyclododecane.

[6] = B. subtilis biofilm inhibition assay, library of polyamines

| Molecule | minimal effective concentration [1, 6] [µM] | further results |
| --- | --- | --- |
| CCOC(=O)CCC(=O)CCC(=O)OCC [Molecule 11, Diethyl 4-oxoheptanedioate] | > 5000 | – |
| CCCCCCCCCCCCNCCCNCCCNCCCCCCCCCCCC [Molecule 13, N^1-dodecyl-N^3-(3-(dodecylamino)propyl)propane-1,3-diamine] | 100 | biofilm-inhibitory activity against B. subtilis ([1]; library of polyamines): active |
| c1cc2ccc1CNCCCNCCCNCc1ccc(cc1)CNCCCNCCCNC2 [Molecule 12, 3,7,11,18,22,26-Hexaazatricyclo[26.2.2.213,16]tetratriaconta-13,15,28,30,31,33-hexaene] | 500 | biofilm-inhibitory activity against B. subtilis ([1]; library of polyamines): active |
| Cc1c(Cc2[nH]c(C(=O)OC(C)(C)C)c(C)c2C)[nH]c(Cc2[nH]c(C(=O)OC(C)(C)C)c(C)c2C)c1C [Molecule 14, di-tert-butyl 5,5′-((3,4-dimethyl-1H-pyrrole-2,5-diyl)bis(methylene))bis(3,4-dimethyl-1H-pyrrole-2-carboxylate)] | 500 to 700 | biofilm-inhibitory activity against B. subtilis ([1]; library of polyamines): active |
| NCCCCNCCCN [Molecule 3, 1,8-diamino-4-azaoctane, reference compound] | – | staining of exopolysaccharide, E. coli cells [2]: not; concentration above which inhibition of biofilm formation is observed ([1]; listed as spermidine): > 2 mM; inhibition of pellicle formation at 50 μM [1]: do not; pattern of concanavalin A-Texas Red staining of exopolysaccharide [3]: No such effect; staining of exopolysaccharide, S. aureus cells [4]: not; inhibition of biofilm formation on solid biofilm medium [5]: do not |
| NCCCCN [Molecule 5, 1,4-diaminobutane, reference compound] | 2000 to 3000 | – |
| C1CNCCCNCCCNC1 [c, 1,5,9-triazacyclododecane] | – | inhibition of pellicle formation at 50 μM [1]: inhibits biofilm formation; inhibition of biofilm formation on solid biofilm medium [5]: inhibits biofilm formation |
| NNC(=O)Cc1ccc(CC(=O)NN)[nH]1 [Molecule 15, 2,2′-(1H-pyrrole-2,5-diyl)di(acetohydrazide)] | > 5000 | – |
| CN(C)N(CCC(N)=O)CCC(N)=O [Molecule 16, 3,3′-(2,2-dimethylhydrazine-1,1-diyl)dipropanamide] | > 5000 | – |
| 1,3-diaminopropane [Molecule 6] | – | MBIC- Minimal Biofilm Inhibitory Concentration [1, 6]: 2500 to 5000 µM; concentration above which inhibition of biofilm formation is observed [1]: > 5 mM |
| NCCCCNCCCN [Molecule 3, spermidine] | 5000 | – |
| OCCCNCCCO [Molecule 20, 3,3′-azanediylbis(propan-1-ol)] | > 5000 | – |
| CN(C)CCCNCCCN(C)C [Molecule 8, N^1-(3-(dimethylamino)propyl)-N^3, N^3-dimethylpropane-1,3-diamine] | > 5000 | – |
| NCCCCCN [Molecule 19, pentane-1,5-diamine, reference compound] | 3000 | – |
| NCCCOCCCN [Molecule 10, 3,3′-oxybis(propan-1-amine)] | 5000 | – |
| NCCCN(CCCN)CCCN [Molecule 21, N^1,N^1-bis(3-aminopropyl)propane-1,3-diamine] | 200 | biofilm-inhibitory activity against B. subtilis ([1]; library of polyamines): did not block activity |
| C1COCCN1 [morpholine, reference compound] | – | inhibition of pellicle formation at 100 μM ([1]; NCBI3610 in fresh medium, 100 μM (FIG. 1B)): inactive |
| O=C(NCCCNCCCNC(=O)C(O)C(O)C(O)C(O)CO)C(O)C(O)C(O)C(O)CO (centres unmarked) [Molecule 17, N,N′-(azanediylbis(propane-3,1-diyl))bis(2,3,4,5,6-pentahydroxyhexanamide)] | > 5000 | – |
| NCCCNCCCCNCCCN [Molecule 4, 1,12-diamino-4,9-diazaoctane, reference compound] | 2500 | – |
| CN(CCCN)CCCN [Molecule 9, (3-aminopropyl)-N^1-methylpropane-1,3-diamine] | > 5000 | – |
| CN(C)CCCN(C)CCCN(C)C [Molecule 7, N^1-(3-(dimethylamino)propyl)-N^1,N^3,N^3-trimethylpropane-1,3-diamine] | > 5000 | – |
